Consider 3 compounds from patent publication US11542266B1, “Substituted piperidines as BTK inhibitors” (HAISCO PHARMACEUTICALS PTE. LTD., priority 2019, dated 2023).

The test system of one series is Mino cells. Briefly: Inhibition of cell proliferation, Mino cells (Cell Viability Assay, 72 h). It counts as cell-based, human. To be noted: Homo sapiens. The essentials:
(§1)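 RPMI1640 + 10% FBS cultures seeded at 20000/well (SU-DHL-4) or 5000/well (Mino, SU-DHL-6), exposed to compound dilutions in triplicate for 72 h at 37 °C, 5% CO2, DMSO vehicle control. Viability read by luminescent reagent; IC50 from dose-response and Max inhi. % = (1 − T72 treated/T72 vehicle)×100 at top concentration.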

The test system of a further series is SU-DHL-4 cells. The series can be described thus: Inhibition of cell proliferation, SU-DHL-4 cells (Cell Viability Assay, 72 h). It counts as cell-based, human. The note with it: Homo sapiens. The essentials:
as §1

The next series concerns SU-DHL-6 cells. The series can be described thus: Inhibition of cell proliferation, SU-DHL-6 cells (Cell Viability Assay, 72 h). It counts as cell-based. To be noted: Homo sapiens. The essentials: as §1
The next series concerns OCI-LY10 cells. Briefly: Inhibition of cell proliferation, OCI-LY10 cells (Cell Viability Assay, 72 h). It counts as cell-based. The note with it: Homo sapiens. The method, then:
(§2) OCI-LY10 and TMD-8 cells, in the culture medium of RPMI1640+10% FBS, were cultured in an incubator at 37° C. under 5% CO2. Cells were plated in a 96-well plate. Specifically, OCI-LY10 cells were at 10000/well, and TMD-8 cells were at 8000/well, with 90 μL/well. These cells were cultured at 37° C. under 5% CO2 overnight. On the next day, 10 μL of the compounds at different concentrations were added to each well. There were 3 replicate wells for each concentration, and the last column, added with DMSO, was used as a vehicle control group. The cultures were continued for 72 hours at 37° C. under 5% CO2. After 72 hours, 50 μL of detection reagent (Cell Viability Assay, Promega, G7573) was added to each well, and the cultures were uniformly mixed for 2 minutes, and incubated at room temperature for 10 minutes. The fluorescence signal value was measured with an Envision2104 plate reader (PerkinElmer). The inhibition rate was calculated using formula (2), wherein RLUcompound was the readout of the drug treated group, RLUcontrol was the average value of the vehicle control group, and RLUblank was the average value of the cell-free wells. The IC50 value was calculated using GraphPad Prism software. IR (%)=(1−(RLUcompound-RLUblank)/(RLUcontrol-RLUblank))*100% formula (2)

The subject of another series is TMD-8 cells. The series can be described thus: Inhibition of cell proliferation, TMD-8 cells (Cell Viability Assay, 72 h). The note with it: Homo sapiens, TMD8. It counts as cell-based. The method, then:
as §2

A short description of series [1]: Pharmacokinetic experiment in rats (i.g. vehicle 0.5% MC). The note with it: Sprague-Dawley (SD), rat, plasma, po, male SD rats. It counts as in vivo. The essentials:
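Male SD rats (200–250 g, 6–8 weeks, n=6 per compound) were dosed once i.v. or intragastrically after a 12–14 h fast and fed 4 h post-dose. Orbital blood was drawn into EDTA-K2 tubes at 0–24 h (from 5 min i.v., from 15 min oral). Plasma was quantified by LC-MS/MS for PK parameters and bioavailability.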

A short description of series [2]: Pharmacokinetic experiment in mice. To be noted: mouse, plasma, male ICR mice. It counts as in vivo. As for the experimental part: Objective: In this experiment, a single dose of each test compound was administered to ICR mice intravenously and intragastrically, the concentrations of the test compound in plasma of mice were measured, and the pharmacokinetic characteristics and bioavailability of the test compound in mice were evaluated.
Experimental animals: Male ICR mice, 20-25 g, 6-8 weeks old, 24 mice/compound. The experimental animals were purchased from CHENGDU DOSSY EXPERIMENTAL ANIMALS CO., LTD.
Experimental method: On the day of the experiment, 24 ICR mice were randomly grouped according to their body weight. The animals were fasted with water available for 12 to 14 hours one day before the administration of a test compound, and were fed 4 hours after the administration.
Sampling: Before and after the administration, 0.06 ml of blood was taken from the orbit of the mice under isoflurane anesthesia, and placed in an EDTAK2 centrifuge tube. Centrifugation was carried out at 5000 rpm at 4° C. for 10 min and the plasma was collected.
Time points for plasma collection in G1 group: 0, 5 min, 15 min, 30 min, 1 h, 2 h, 4 h, 6 h, 8 h, and 24 h;
Time points for plasma collection in G2 group: 0, 15 min, 30 min, 1 h, 2 h, 4 h, 6 h, 8 h, and 24 h;
(§3) Before analysis and detection, all samples were stored at −80° C. The samples were analyzed quantitatively by LC-MS/MS.

In the next series the target is BTK protein (Mus musculus (Mouse), UniProt P35991). The series can be described thus: Detection of BTK protein degradation in spleen of mice. The note with it: po, 72 h, female ICR mice, 3 consecutive days of intragastric administration, read-out: DD50 value of compounds on BTK protein degradation in spleen of mice. It counts as in vivo. As for the experimental part: Female ICR mice, 6-8 weeks old, were purchased from BEIJING VITAL RIVER LABORATORY ANIMAL TECHNOLOGY CO., LTD, and the experiment was started after 3 days of adaptation. After 3 consecutive days of intragastric administration of different doses of the compound, the spleen of mice was taken, the spleen cells were collected, and RIPA lysis buffer (Beyotime, Cat. P0013B) was added. The cells were lysed on ice for 15 minutes, and centrifuged at 12000 rpm at 4° C. for 10 minutes. The protein sample of the supernatant was collected, and the protein was quantified by using the BCA kit (Beyotime, Cat. P0009), and then the protein was diluted to 0.25 mg/mL. The expressions of BTK (CST, Cat. 8547S) and the internal reference β-actin (CST, Cat. 3700S) were detected using a fully automated western blot quantitative analyzer (Proteinsimple). The expression level of BTK relative to the internal reference was calculated using Compass software, and the DD50 value was calculated using Origen9.2 software according to formula (4). Specifically, the BTKadministration denoted the expression level of BTK in administration groups at different doses, and the BTKvehicle denoted the expression level of BTK in the vehicle control group. BTK %=BTKadministration/BTKvehicle×100 formula (4)
Chain of BTK protein (P35991 whole entry): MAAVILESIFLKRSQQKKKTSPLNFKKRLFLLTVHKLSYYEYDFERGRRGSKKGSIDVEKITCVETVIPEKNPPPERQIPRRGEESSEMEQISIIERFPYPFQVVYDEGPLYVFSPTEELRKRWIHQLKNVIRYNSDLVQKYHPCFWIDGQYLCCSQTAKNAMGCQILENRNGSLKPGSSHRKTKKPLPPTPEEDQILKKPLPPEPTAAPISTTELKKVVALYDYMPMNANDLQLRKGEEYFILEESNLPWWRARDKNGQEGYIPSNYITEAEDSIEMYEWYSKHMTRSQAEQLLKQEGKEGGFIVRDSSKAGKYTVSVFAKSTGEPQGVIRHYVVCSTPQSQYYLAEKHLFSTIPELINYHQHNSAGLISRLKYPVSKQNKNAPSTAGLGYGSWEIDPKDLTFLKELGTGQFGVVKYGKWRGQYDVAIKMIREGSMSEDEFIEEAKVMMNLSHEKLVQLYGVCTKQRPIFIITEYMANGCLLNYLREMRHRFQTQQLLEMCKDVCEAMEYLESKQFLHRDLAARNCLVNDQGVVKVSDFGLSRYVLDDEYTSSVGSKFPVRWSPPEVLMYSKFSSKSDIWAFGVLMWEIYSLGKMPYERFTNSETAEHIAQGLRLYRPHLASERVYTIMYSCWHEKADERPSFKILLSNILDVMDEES

A short description of series [3]: Pharmacokinetic experiment in rats (i.g. vehicle DMSO/Solutol/PEG-400/SBE-β-CD). It counts as in vivo. To be noted: Sprague-Dawley (SD), rat, plasma, po, male SD rats; for bioavailability: i.g. 20 mg/kg (DMSO/Solutol/PEG-400/SBE-β-CD) vs i.v. 5 mg/kg; for AUC(0-t): i.g. 20 mg/kg, vehicle 5% DMSO + 5% Solutol + 30% PEG-400 + 60% (20%SBE-β-CD). The method, then:
Objective: In this experiment, a single dose of each test compound was administered to SD rats intravenously and intragastrically, the concentrations of the test compound in plasma of rats were measured, and the pharmacokinetic characteristics and bioavailability of the test compound in rats were evaluated.
Experimental animals: Male SD rats, 200-250 g, 6-8 weeks old, 6 rats/compound. The experimental animals were purchased from CHENGDU DOSSY EXPERIMENTAL ANIMALS CO., LTD.
Experimental method: On the day of the experiment, 6 SD rats were randomly grouped according to their body weight. The animals were fasted with water available for 12 to 14 hours one day before the administration of a test compound, and were fed 4 hours after the administration.
Sampling: Before and after the administration, 0.1 mL of blood was taken from the orbit of the rats under isoflurane anesthesia, and placed in an EDTAK2 centrifuge tube. Centrifugation was carried out at 5000 rpm at 4° C. for 10 min and the plasma was collected.
Time points for plasma collection in G1 group: 0, 5 min, 15 min, 30 min, 1 h, 2 h, 4 h, 6 h, 8 h, and 24 h.
Time points for plasma collection in G2 group: 0, 15 min, 30 min, 1 h, 2 h, 4 h, 6 h, 8 h, and 24 h.
as §3

Molecules are shown by their SMILES.

As for `Nc1ncnc2c1c(-c1ccc(Oc3ccccc3)cc1)nn2C1CCN(C2CN(C3CN(c4ccc5c(c4)C(=O)N(C4CCC(=O)NC4=O)C5=O)C3)C2)CC1` (centres unmarked) [Compound 17, 5-[3-[3-[4-[4-amino-3-(4-phenoxyphenyl)pyrazolo[3,4-d]pyrimidin-1-yl]-1-piperidyl]azetidin-1-yl]azetidin-1-yl]-2-(2,6-dioxo-3-piperidyl)isoindoline-1,3-dione], the half-inhibitory concentration (IC50) – broadly, the concentration that gives 50% inhibition – with Mino cells turned out to be 20 nM; in the series with SU-DHL-4 cells it was 367 nM; in the series on SU-DHL-6 cells it was 744 nM; in the series with OCI-LY10 cells it was 5 nM; in the series with TMD-8 cells, 22 nM. The bioavailability (in general, dose-corrected exposure relative to a reference, in per cent) in series [1] (i.g. 20 mg/kg (0.5% MC) vs i.v. 5 mg/kg) was 6.57 ± 0.77%; in series [2] (oral, i.g. 10 mg/kg vs i.v. 5 mg/kg) it was 10.8%. Further, the AUC(0-t) worked out at 2340 ± 274 ng·h/mL in series [1] (i.g. 20 mg/kg, vehicle 0.5% MC, read-out: AUC0-t) and 2430 ng·h/mL in series [2] (po, i.g. 10 mg/kg, vehicle 0.5% MC). Further, at BTK protein, the ED50 worked out at 3.8 mg/kg.

Regarding `Nc1ncnc2c1c(-c1ccc(Oc3ccccc3)cc1)nn2[C@H]1CCN(C2CCN(C3CN(c4ccc5c(c4)C(=O)N(C4CCC(=O)NC4=O)C5=O)C3)CC2)C[C@H]1F` (stereo partly drawn) [Compound 42, 5-(3-((3R,4S)-4-(4-amino-3-(4-phenoxyphenyl)-1H-pyrazolo[3,4-d]pyrimidin-1-yl)-3-fluoro-[1,4′-bipiperidin]-1′-yl)azetidin-1-yl)-2-(2,6-dioxopiperidin-3-yl)isoindoline-1,3-dione], the IC50 in the series on Mino cells stood at 15 nM; with SU-DHL-4 cells it was 382 nM; with SU-DHL-6 cells it was 177 nM; in the series with OCI-LY10 cells, 3 nM; in the series with TMD-8 cells it was 16 nM. The bioavailability in [3] was 9.14 ± 2.5%. Further, the AUC(0-t) in series [3] worked out at 1200 ± 327 ng·h/mL. Also, the ED50 on BTK protein was determined as 1.9 mg/kg.

On to `Nc1ncnc2c1c(-c1ccc(Oc3ccccc3)cc1)nn2[C@@H]1CCN(C2CCN(C3CN(c4ccc5c(c4)C(=O)N(C4CCC(=O)NC4=O)C5=O)C3)CC2)C[C@@H]1F` (stereo partly drawn) [Compound 45, 5-(3-((3S,4R)-4-(4-amino-3-(4-phenoxyphenyl)-1H-pyrazolo[3,4-d]pyrimidin-1-yl)-3-fluoro-[1,4′-bipiperidin]-1′-yl)azetidin-1-yl)-2-(2,6-dioxopiperidin-3-yl)isoindoline-1,3-dione], for which the IC50 stood at 9.6 nM in the series on Mino cells; 110 nM with SU-DHL-4 cells; 125 nM in the series on SU-DHL-6 cells; 3 nM with OCI-LY10 cells; 16 nM with TMD-8 cells. The compound also returned a bioavailability in series [3] of 19.7 ± 8.5%. Besides, the AUC(0-t) in series [3] stood at 3440 ± 1490 ng·h/mL. The ED50 at BTK protein was determined as 1.4 mg/kg.
